Results as given in the NIST ThermoML archive (doi:10.1021/acs.jced.8b01135).

Assay: xn = mol fraction of the nth substance listed
Conditions: 102 kPa, Liquid; for speed of sound: Frequency=3 MHz, Single path-length method; for mass density: Vibrating tube method; for viscosity: Concentric cylinders viscometry

CCCCCCCC1CCCCC1 [heptylcyclohexane] + CCCCCCCCCCCC
Conditions | mass density [kg/m3] | speed of sound [m/s] | viscosity [mPa·s]
288.15 K, x1 = 0.1002 | 758.6 | 1324.4 | –
288.15 K, x1 = 0.201 | 764.82 | 1331.8 | –
288.15 K, x1 = 0.3 | 771.01 | 1339.3 | –
288.15 K, x1 = 0.3998 | 777.16 | 1346.8 | –
288.15 K, x1 = 0.5002 | 783.44 | 1354.4 | –
288.15 K, x1 = 0.5999 | 789.63 | 1362 | –
288.15 K, x1 = 0.6998 | 795.81 | 1369.8 | –
288.15 K, x1 = 0.8001 | 802.09 | 1377.6 | –
288.15 K, x1 = 0.8998 | 808.24 | 1385.6 | –
288.15 K, x1 = 1 | 814.51 | 1393.6 | –
293.15 K, x1 = 0.1002 | 754.98 | 1304.9 | 1.57
293.15 K, x1 = 0.201 | 761.22 | 1312.4 | 1.67
293.15 K, x1 = 0.3 | 767.42 | 1319.9 | 1.76
293.15 K, x1 = 0.3998 | 773.59 | 1327.3 | 1.87
293.15 K, x1 = 0.5002 | 779.88 | 1335.1 | 1.99
293.15 K, x1 = 0.5999 | 786.08 | 1342.8 | 2.12
293.15 K, x1 = 0.6998 | 792.27 | 1350.4 | 2.26
293.15 K, x1 = 0.8001 | 798.57 | 1358.3 | 2.42
293.15 K, x1 = 0.8998 | 804.73 | 1366.2 | 2.6
293.15 K, x1 = 1 | 811 | 1374.2 | 2.8
298.15 K, x1 = 0.1002 | 751.36 | 1285.5 | –
298.15 K, x1 = 0.201 | 757.61 | 1293.1 | –
298.15 K, x1 = 0.3 | 763.84 | 1300.8 | –
298.15 K, x1 = 0.3998 | 770.01 | 1308 | –
298.15 K, x1 = 0.5002 | 776.32 | 1316 | –
298.15 K, x1 = 0.5999 | 782.53 | 1323.6 | –
298.15 K, x1 = 0.6998 | 788.73 | 1331.1 | –
298.15 K, x1 = 0.8001 | 795.04 | 1339.3 | –
298.15 K, x1 = 0.8998 | 801.21 | 1346.9 | –
298.15 K, x1 = 1 | 807.49 | 1355.1 | –
303.15 K, x1 = 0.1002 | 747.74 | 1266.3 | 1.33
303.15 K, x1 = 0.201 | 754.01 | 1273.9 | 1.41
303.15 K, x1 = 0.3 | 760.25 | 1281.8 | 1.48
303.15 K, x1 = 0.3998 | 766.42 | 1288.8 | 1.57
303.15 K, x1 = 0.5002 | 772.75 | 1297 | 1.66
303.15 K, x1 = 0.5999 | 778.98 | 1304.7 | 1.74
303.15 K, x1 = 0.6998 | 785.18 | 1312.1 | 1.85
303.15 K, x1 = 0.8001 | 791.51 | 1320.3 | 1.97
303.15 K, x1 = 0.8998 | 797.69 | 1327.9 | 2.11
303.15 K, x1 = 1 | 803.98 | 1336.1 | 2.25
313.15 K, x1 = 0.1002 | 740.48 | 1228.4 | 1.13
313.15 K, x1 = 0.201 | 746.79 | 1236.2 | 1.19
313.15 K, x1 = 0.3 | 753.05 | 1244.2 | 1.25
313.15 K, x1 = 0.3998 | 759.25 | 1251.2 | 1.32
313.15 K, x1 = 0.5002 | 765.6 | 1259.6 | 1.39
313.15 K, x1 = 0.5999 | 771.86 | 1267.3 | 1.47
313.15 K, x1 = 0.6998 | 778.09 | 1274.6 | 1.54
313.15 K, x1 = 0.8001 | 784.43 | 1283 | 1.63
313.15 K, x1 = 0.8998 | 790.64 | 1290.5 | 1.73
313.15 K, x1 = 1 | 796.95 | 1298.8 | 1.85
323.15 K, x1 = 0.1002 | 733.2 | 1191.3 | 0.976
323.15 K, x1 = 0.201 | 739.54 | 1199.2 | 1.02
323.15 K, x1 = 0.3 | 745.82 | 1207.3 | 1.08
323.15 K, x1 = 0.3998 | 752.06 | 1214.3 | 1.13
323.15 K, x1 = 0.5002 | 758.43 | 1222.8 | 1.19
323.15 K, x1 = 0.5999 | 764.71 | 1230.6 | 1.25
323.15 K, x1 = 0.6998 | 770.98 | 1238 | 1.32
323.15 K, x1 = 0.8001 | 777.34 | 1246.3 | 1.38
323.15 K, x1 = 0.8998 | 783.57 | 1253.9 | 1.45
323.15 K, x1 = 1 | 789.91 | 1262.2 | 1.55
333.15 K, x1 = 0.1002 | 725.89 | 1155.3 | 0.851
333.15 K, x1 = 0.201 | 732.26 | 1163.2 | 0.891
333.15 K, x1 = 0.3 | 738.56 | 1171.2 | 0.933
333.15 K, x1 = 0.3998 | 744.84 | 1178.5 | 0.977
333.15 K, x1 = 0.5002 | 751.23 | 1186.8 | 1.03
333.15 K, x1 = 0.5999 | 757.54 | 1194.6 | 1.08
333.15 K, x1 = 0.6998 | 763.84 | 1202.4 | 1.14
333.15 K, x1 = 0.8001 | 770.22 | 1210.5 | 1.18
333.15 K, x1 = 0.8998 | 776.49 | 1218.5 | 1.23
333.15 K, x1 = 1 | 782.85 | 1226.7 | 1.31
